From ChEMBL document CHEMBL1201862, “PubChem BioAssay data set” (2004)
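These data come from cells grown in 96-well plates and exposed to compound for 48 hours at five concentrations. GI50: concentration for 50% inhibition of growth.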 Activity calls are given as the source filed them. Cut-off read from the data, not from the text of the source: active = GI50 up to about 1.1 µM and inactive = higher.

Experiments:
Experiment in all cases: inhibition of tumour cell growth, NCI panel, 48 h
[1] = system: T47D
[2] = system: IGROV-1
[3] = system: 786-0
[4] = system: SNB-75
[5] = system: OVCAR-8
[6] = system: RPMI-8226
[7] = system: SF-295
[8] = system: SK-MEL-2
[9] = system: NCI-H23
[10] = system: OVCAR-5
[11] = system: SR
[12] = system: MCF7
[13] = system: A549
[14] = system: TK-10
[15] = system: SK-OV-3
[16] = system: LOX IMVI
[17] = system: DU-145
[18] = system: HOP-62
[19] = system: Hs-578T
[20] = system: HCT-15
[21] = system: CCRF-CEM
[22] = system: KM12
[23] = system: HCT-116
[24] = system: SF-268
[25] = system: PC-3
[26] = system: OVCAR-3
[27] = system: NCI-H460
[28] = system: COLO 205
[29] = system: ACHN
[30] = system: SK-MEL-5
[31] = system: NCI-H522
[32] = system: HT-29
[33] = system: U-251
[34] = system: K562
[35] = system: EKVX
[36] = system: NCI-H226
[37] = system: BT-549
[38] = system: M14
[39] = system: RXF 393
[40] = system: UACC-257
[41] = system: NCI/ADR-RES
[42] = system: CAKI-1
[43] = system: MOLT-4
[44] = system: UO-31
[45] = system: UACC-62
[46] = system: MDA-N
[47] = system: OVCAR-4
[48] = system: SF-539
[49] = system: MDA-MB-435
[50] = system: HCC 2998
[51] = system: HL-60
[52] = system: SK-MEL-28
[53] = system: MDA-MB-231
[54] = system: SN12C
[55] = system: SNB-19
[56] = system: SW-620
[57] = system: Malme-3M
[58] = system: A498
[59] = system: HOP-92

With `CC(C)C1CC[C@H](C)C[C@@H]1OC(=O)C(C(=O)O[C@H]1C[C@@H](C)CCC1C(C)C)C(O)[C@@H]1OC(C)(C)O[C@H]1C1COC(C)(C)O1` (some centres not stated) the GI50 [1] was 13.1 µM (inactive), the GI50 [2] was 16.8 µM (inactive) and the GI50 [3] was 16.6 µM (inactive). For the same molecule, the GI50 [4] was 15.7 µM (inactive), the GI50 [5] was 21 µM (inactive) and the GI50 [6] was 16.7 µM (inactive). The GI50 [7] was 16.1 µM (inactive), the GI50 [8] was 19.4 µM (inactive) and the GI50 [9] was 13.4 µM (inactive). The GI50 [10] was 17.3 µM (inactive), the GI50 [11] was 9.62 µM (inactive) and the GI50 [12] was 8.13 µM (inactive). For the same molecule, the GI50 [13] was 22.3 µM (inactive), the GI50 [14] was 20 µM (inactive) and the GI50 [15] was 26.8 µM (inactive). The GI50 [16] was 16.8 µM (inactive), the GI50 [17] was 18.8 µM (inactive) and the GI50 [18] was 19.7 µM (inactive). The GI50 [19] was 15 µM (inactive), the GI50 [20] was 20.7 µM and the GI50 [21] was 15 µM (inactive). For the same molecule, the GI50 [22] was 16.6 µM (inactive), the GI50 [23] was 11.7 µM (inactive) and the GI50 [24] was 19.9 µM (inactive). For the same molecule, the GI50 [25] was > 10 µM (inactive), the GI50 [26] was 19.9 µM (inactive) and the GI50 [27] was 15 µM (inactive). For the same molecule, the GI50 [28] was 13.6 µM (inactive), the GI50 [29] was 16.6 µM (inactive) and the GI50 [30] was 15.8 µM (inactive). For the same molecule, the GI50 [31] was 1.58 µM (inactive), the GI50 [32] was 13.4 µM (inactive) and the GI50 [33] was 14.2 µM (inactive). For the same molecule, the GI50 [34] was 11.1 µM (inactive), the GI50 [35] was 20.8 µM (inactive) and the GI50 [36] was 23.8 µM (inactive). For the same molecule, the GI50 [37] was 19 µM (inactive), the GI50 [38] was 19 µM (inactive) and the GI50 [39] was 14.7 µM (inactive). For the same molecule, the GI50 [40] was 24.6 µM (inactive), the GI50 [41] was 20.4 µM (inactive) and the GI50 [42] was 16.3 µM (inactive). The GI50 [43] was 10.7 µM (inactive), the GI50 [44] was 17.3 µM (inactive) and the GI50 [45] was 18.8 µM (inactive). The GI50 [46] was 18.5 µM (inactive), the GI50 [47] was 26 µM (inactive) and the GI50 [48] was 26.8 µM (inactive). The GI50 [49] was 16.6 µM (inactive), the GI50 [50] was 13.8 µM (inactive) and the GI50 [51] was 16.7 µM (inactive). For the same molecule, the GI50 [52] was 18.3 µM (inactive), the GI50 [53] was 17 µM (inactive) and the GI50 [54] was 16.5 µM (inactive). The GI50 [55] was 16.3 µM (inactive), the GI50 [56] was 14.2 µM (inactive) and the GI50 [57] was 17.1 µM (inactive).
In the case of `CC(=O)Nc1ccc(Cc2ccc3nc(O)cc(C)c3c2)cc1`, the GI50 [1] was 55.3 µM (inactive), the GI50 [2] was 61.2 µM (inactive) and the GI50 [3] was 24.3 µM (inactive). The GI50 [4] was 10.3 µM (inactive), the GI50 [5] was > 100 µM (inactive) and the GI50 [6] was 17.2 µM (inactive). The GI50 [7] was 29.9 µM (inactive), the GI50 [8] was 22.2 µM (inactive) and the GI50 [9] was > 100 µM (inactive). The GI50 [10] was > 100 µM (inactive), the GI50 [11] was > 100 µM (inactive) and the GI50 [12] was 81.5 µM (inactive). For the same molecule, the GI50 [13] was > 100 µM (inactive), the GI50 [14] was 40.5 µM (inactive) and the GI50 [15] was 87.3 µM (inactive). The GI50 [16] was > 100 µM (inactive), the GI50 [17] was 32.5 µM (inactive) and the GI50 [18] was 33.8 µM (inactive). The GI50 [19] was 85.1 µM (inactive), the GI50 [20] was > 100 µM and the GI50 [21] was > 100 µM (inactive). The GI50 [22] was > 100 µM (inactive), the GI50 [23] was 83.8 µM (inactive) and the GI50 [24] was > 100 µM (inactive). For the same molecule, the GI50 [25] was 50.5 µM (inactive), the GI50 [26] was > 100 µM (inactive) and the GI50 [27] was 62.1 µM (inactive). The GI50 [58] was > 100 µM (inactive), the GI50 [28] was 57.4 µM (inactive) and the GI50 [29] was 50.8 µM (inactive). For the same molecule, the GI50 [30] was > 100 µM (inactive), the GI50 [31] was 48.8 µM (inactive) and the GI50 [32] was 50.6 µM (inactive). The GI50 [33] was 30.1 µM (inactive), the GI50 [34] was > 100 µM (inactive) and the GI50 [35] was 65.3 µM (inactive). The GI50 [36] was > 100 µM (inactive), the GI50 [37] was > 100 µM (inactive) and the GI50 [38] was > 100 µM (inactive). The GI50 [39] was 35.5 µM (inactive), the GI50 [40] was 67 µM (inactive) and the GI50 [41] was > 100 µM (inactive). The GI50 [42] was 63.5 µM (inactive), the GI50 [43] was > 100 µM (inactive) and the GI50 [44] was > 100 µM (inactive). For the same molecule, the GI50 [45] was 31 µM (inactive), the GI50 [46] was > 100 µM (inactive) and the GI50 [47] was > 100 µM (inactive). The GI50 [48] was 68.7 µM (inactive), the GI50 [59] was > 100 µM (inactive) and the GI50 [49] was > 100 µM (inactive). The GI50 [51] was > 100 µM (inactive), the GI50 [52] was > 100 µM (inactive) and the GI50 [53] was 28.8 µM (inactive). For the same molecule, the GI50 [54] was 64.6 µM (inactive), the GI50 [55] was 63.5 µM (inactive) and the GI50 [56] was > 100 µM (inactive). For the same molecule, the GI50 [57] was 87.7 µM (inactive).
For `C[n+]1c2ccccc2c(C(=O)NC(CCCNC(=N)N)C(=O)O)c2ccccc21` (configuration not stated), the GI50 [1] was > 100 µM (inactive), the GI50 [2] was > 100 µM (inactive) and the GI50 [3] was > 100 µM (inactive). For the same molecule, the GI50 [4] was > 100 µM (inactive), the GI50 [5] was > 100 µM (inactive) and the GI50 [6] was > 100 µM (inactive). The GI50 [7] was > 100 µM (inactive), the GI50 [8] was > 100 µM (inactive) and the GI50 [9] was > 100 µM (inactive). The GI50 [10] was > 100 µM (inactive), the GI50 [11] was 1.31 µM (inactive) and the GI50 [12] was > 100 µM (inactive). The GI50 [13] was > 100 µM (inactive), the GI50 [14] was > 100 µM (inactive) and the GI50 [15] was > 100 µM (inactive). For the same molecule, the GI50 [16] was > 100 µM (inactive), the GI50 [17] was > 100 µM (inactive) and the GI50 [18] was > 100 µM (inactive). The GI50 [19] was > 100 µM (inactive), the GI50 [20] was > 100 µM and the GI50 [22] was > 100 µM (inactive). The GI50 [23] was > 100 µM (inactive), the GI50 [24] was > 100 µM (inactive) and the GI50 [25] was > 100 µM (inactive). The GI50 [26] was > 100 µM (inactive), the GI50 [27] was > 100 µM (inactive) and the GI50 [58] was > 100 µM (inactive). For the same molecule, the GI50 [28] was > 100 µM (inactive), the GI50 [29] was > 100 µM (inactive) and the GI50 [30] was > 100 µM (inactive). The GI50 [32] was > 100 µM (inactive), the GI50 [33] was > 100 µM (inactive) and the GI50 [34] was > 100 µM (inactive). The GI50 [35] was > 100 µM (inactive), the GI50 [37] was > 100 µM (inactive) and the GI50 [38] was > 100 µM (inactive). The GI50 [40] was > 100 µM (inactive), the GI50 [41] was > 100 µM (inactive) and the GI50 [43] was > 100 µM (inactive). The GI50 [44] was > 100 µM (inactive), the GI50 [45] was > 100 µM (inactive) and the GI50 [46] was > 100 µM (inactive). The GI50 [47] was > 100 µM (inactive), the GI50 [48] was > 100 µM (inactive) and the GI50 [49] was > 100 µM (inactive). For the same molecule, the GI50 [50] was > 100 µM (inactive), the GI50 [52] was > 100 µM (inactive) and the GI50 [53] was > 100 µM (inactive). The GI50 [54] was > 100 µM (inactive), the GI50 [55] was > 100 µM (inactive) and the GI50 [56] was > 100 µM (inactive). The GI50 [57] was > 100 µM (inactive).
